From patent publication US20120100077A1, “MIXTURE OF AMPHIPATHIC MOLECULES AND METHOD FOR MODIFYING CELL MEMBRANES BY MEANS OF FUSION” (priority 2009, published 2012)
Like-named read-outs stand apart in the source and are kept apart here.

What was measured:
cell membrane [1] = system: cell membrane
Description: (§1) After homogenization in the organic solvent, the organic solvent should be removed.
(§2) The dried mixture is taken up in an aqueous buffer solution, preferably having a pH value of 7, and is homogenized once more. Advantageously a liposome forms, which comprises the molecule types that were added. Molecules of molecule types E and F can likewise be added.
(§3) According to the actual method, the fusion mixture is diluted with a cell medium, e.g. 1:100 (mixture:cell medium v/v), homogenized once more, and added to the cells.
(§4) To this end it is sufficient for the cells to be brought in contact with the mixture for approximately 1 to 60 minutes, and in the case of tissue samples, for 60 to 120 minutes, for example. A cell washing step should then be incorporated.

cell membrane [2] = assay: Fusion quality of R groups bound to amphipathic molecules B in the fusion mixture
Description: as §1, §2, §3, §4

[3] = R group covalently bound to lipid (molecule type B)

| Compound | Fusion quality (cell membrane [2]) | Fusion quality (cell membrane [2]; [3]) | further results |
| --- | --- | --- | --- |
| c1cc2ccc3cccc4ccc(c1)c2c34 [pyrene] | – | – | toxic (cell membrane [1]): 5(toxic) |
| CCCCCCCC/C=C\CCCCCCCC(=O)OC[C@H](COP(=O)(O)OCCNc1ccc([N+](=O)[O-])c2nonc12)OC(=O)CCCCCCC/C=C\CCCCCCCC.CCN(CC)CC [NBD, N-(7-nitrobenz-2-oxa-1,3-diazol-4-yl)-1,2-diolenoyl-sn-glycero-3-phosphoethanolamine (triethylammonium salt)] | 2 | – | – |
| Texas Red 1,2-dihexadecanoyl-sn-glycero-3-phosphoethanolamine (triethylammonium salt) [Texas-Red] | – | 1 | – |
| CCCCCCCC/C=C\CCCCCCCC(=O)OC[C@H](COP(=O)(O)OCCNC(=O)CCCCCNC(=O)CCCCC1SCC2NC(=O)NC21)OC(=O)CCCCCCC/C=C\CCCCCCCC (stereo partly drawn) [capBiotin, 1,2-dioleoyl-sn-glycero-3-phosphoethanolamine-N-cap-biotin] | 6 | – | function as fusion-inducing molecule type B (cell membrane [2]): do not, however, function |
| CCCCCCCC/C=C\CCCCCCCC(=O)OC[C@H](COP(=O)(O)OCCNS(=O)(=O)c1ccc(-c2c3ccc(N(CC)CC)cc3[o+]c3cc(N(CC)CC)ccc23)c(S(=O)(=O)[O-])c1)OC(=O)CCCCCCC/C=C\CCCCCCCC.CCN(CC)CC [LR, Lissamine rhodamine B 1,2-diolenoyl-sn-glycero-3-phosphoethanolamine, (triethylammonium salt)] | 1 | – | – |
| CCCCCCCCCCCCCCCCCCN1C(=CC=Cc2oc3ccccc3[n+]2CCCCCCCCCCCCCCCCCC)Oc2ccccc21.[O-][Cl+3]([O-])([O-])[O-] [DiO per se, DiOC18(3)3,3′-dioctadecyloxacarbocyanine perchlorate] | – | 1 | – |
| CCCCCCCC/C=C\CCCCCCCC(=O)OC[C@H](COP(=O)(O)OCCNC(=O)OCCOCCOCCOCCOCCOCCOCCOCCOCCOCCOCCOCCOCCOCCOCCOCCOCCOCCOCCOCCOCCOCCOCCOCCOCCOCCOCCOCCOCCOCCOCCOCCOCCOCCOCCOCCOCCOCCOCCOCCOCCOCCOCCOCCOCCOC)OC(=O)CCCCCCC/C=C\CCCCCCCC.N [PEG(2000), 1,2-dioleoyl-sn-glycero-3-phosphoethanolamine-N-[methoxy(polyethylene glycol)-2000](ammonium salt)] | – | 6 | toxic (cell membrane [2]; [3]): toxic |
| CCCCC/C=C\C/C=C\C/C=C\C/C=C\CCCC(=O)O[C@H](COC(=O)CCCCCCCCCCCCCCCCC)COP(=O)([O-])O[C@H]1C(O)C(O)C(O)[C@@H](O)C1O.[Na+] (stereo partly drawn) [inositol, L-α-phosphatidylinositol (sodium salt)] | – | 6 | function as fusion-inducing molecule type B (cell membrane [2]): non-functional; toxic (cell membrane [2]; [3]): toxic |
